What follows are compounds tested on HEK293 cells (assay: Preliminary screening as DNA vectors, GFP transfection of HEK293 cells). Details: amino lipid/DOPE liposome with 75 ng plasmid DNA (psin-EGFP-IRES-Puro); number of GFP-expressing cells divided by total nuclei (Hoechst).
Assay type: cell-based
Procedure, shortened: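 Lipid + DOPE liposomes (NaOAc, pH 5.6) complexed w/ 75 ng psin-EGFP-IRES-Puro, 30 min RT; added to 3-5×10^4 HEK293/well, 37° C. Hoechst 0.2 μg/mL at 20-24 h, imaged after further 20-24 h. Efficiency = GFP+ cells / total nuclei.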

Row | SMILES | Absolute DNA transfection efficiency in HEK293 cells [%]
1 | CCCCCCCCCCCNc1nc(NCCN2CCN(C)CC2)nc(SCCCCCCCC)n1 [S8N11 D5] | 52.7
2 | CCCCCCCCCCCNc1nc(NCCCN(C)C)nc(SCCCCCCCC)n1 [S8N11 D6] | 99.4
3 | CCCCCCCCCCCNc1nc(NCCN(CC)CC)nc(SCCCCCCCC)n1 [S8N11 D7] | 24.6
4 | CCCCCCCCCCCNc1nc(NCCCN2CCOCC2)nc(SCCCCCCCC)n1 [S8N11 D8] | 13.7
5 | CCCCCCCCCCCNc1nc(NCCCN2CCN(C)CC2)nc(SCCCCCCCC)n1 [S8N11 D9] | 63.6
6 | CCCCCCCCCCCNc1nc(NCC2CCN(C)CC2)nc(SCCCCCCCC)n1 [S8N11 D10] | 46.3
7 | CCCCCCCCCCCCNc1nc(NCCN(C)C)nc(SCCCCCCCC)n1 [S8N12 D1] | 22.1
8 | CCCCCCCCCCCCNc1nc(NCCN2CCOCC2)nc(SCCCCCCCC)n1 [S8N12 D2] | 38.1
9 | CCCCCCCCCCCCNc1nc(NCCN2CCCC2)nc(SCCCCCCCC)n1 [S8N12 D3] | 17.8
10 | CCCCCCCCCCCCNc1nc(NCCN2CCCCC2)nc(SCCCCCCCC)n1 [S8N12 D4] | 7.6
11 | CCCCCCCCCCCCNc1nc(NCCN2CCN(C)CC2)nc(SCCCCCCCC)n1 [S8N12 D5] | 41.7
12 | CCCCCCCCCCCCNc1nc(NCCCN(C)C)nc(SCCCCCCCC)n1 [S8N12 D6] | 78.3
13 | CCCCCCCCCCCCNc1nc(NCCN(CC)CC)nc(SCCCCCCCC)n1 [S8N12 D7] | 9.5
14 | CCCCCCCCCCCCNc1nc(NCCCN2CCOCC2)nc(SCCCCCCCC)n1 [S8N12 D8] | 16.1
15 | CCCCCCCCCCCCNc1nc(NCCCN2CCN(C)CC2)nc(SCCCCCCCC)n1 [S8N12 D9] | 48.3
16 | CCCCCCCCCCCCNc1nc(NCC2CCN(C)CC2)nc(SCCCCCCCC)n1 [S8N12 D10] | 44.5
17 | CCCCCCCCCCCCCNc1nc(NCCN(C)C)nc(SCCCCCCCC)n1 [S8N13 D1] | 18.3
18 | CCCCCCCCCCCCCNc1nc(NCCN2CCOCC2)nc(SCCCCCCCC)n1 [S8N13 D2] | 19.7
19 | CCCCCCCCCCCCCNc1nc(NCCN2CCCC2)nc(SCCCCCCCC)n1 [S8N13 D3] | 30.5
20 | CCCCCCCCCCCCCNc1nc(NCCN2CCCCC2)nc(SCCCCCCCC)n1 [S8N13 D4] | 3.8
21 | CCCCCCCCCCCCCNc1nc(NCCN2CCN(C)CC2)nc(SCCCCCCCC)n1 [S8N13 D5] | 28.3
22 | CCCCCCCCCCCCCNc1nc(NCCCN(C)C)nc(SCCCCCCCC)n1 [S8N13 D6] | 55.1
23 | CCCCCCCCCCCCCNc1nc(NCCN(CC)CC)nc(SCCCCCCCC)n1 [S8N13 D7] | 8.9
24 | CCCCCCCCCCCCCNc1nc(NCCCN2CCOCC2)nc(SCCCCCCCC)n1 [S8N13 D8] | 13.3
25 | CCCCCCCCCCCCCNc1nc(NCCCN2CCN(C)CC2)nc(SCCCCCCCC)n1 [S8N13 D9] | 27.9

Row | SMILES | Absolute DNA transfection efficiency in HEK293 cells [%]
26 | CCCCCCCCCCCCCNc1nc(NCC2CCN(C)CC2)nc(SCCCCCCCC)n1 [S8N13 D10] | 18.7
27 | CCCCCCCCCCCCCCCNc1nc(NCCN(C)C)nc(SCCCCCCCC)n1 [S8N15 D1] | 8.0
28 | CCCCCCCCCCCCCCCNc1nc(NCCN2CCOCC2)nc(SCCCCCCCC)n1 [S8N15 D2] | 4.9
29 | CCCCCCCCCCCCCCCNc1nc(NCCN2CCCC2)nc(SCCCCCCCC)n1 [S8N15 D3] | 9.9
30 | CCCCCCCCCCCCCCCNc1nc(NCCN2CCCCC2)nc(SCCCCCCCC)n1 [S8N15 D4] | 0.9
31 | CCCCCCCCCCCCCCCNc1nc(NCCN2CCN(C)CC2)nc(SCCCCCCCC)n1 [S8N15 D5] | 10.4
32 | CCCCCCCCCCCCCCCNc1nc(NCCCN(C)C)nc(SCCCCCCCC)n1 [S8N15 D6] | 23.7
33 | CCCCCCCCCCCCCCCNc1nc(NCCN(CC)CC)nc(SCCCCCCCC)n1 [S8N15 D7] | 2.2
34 | CCCCCCCCCCCCCCCNc1nc(NCCCN2CCOCC2)nc(SCCCCCCCC)n1 [S8N15 D8] | 7.7
35 | CCCCCCCCCCCCCCCNc1nc(NCCCN2CCN(C)CC2)nc(SCCCCCCCC)n1 [S8N15 D9] | 12.4
36 | CCCCCCCCCCCCCCCNc1nc(NCC2CCN(C)CC2)nc(SCCCCCCCC)n1 [S8N15 D10] | 22.6
37 | CCCCCCCCCCCCCCCCNc1nc(NCCN(C)C)nc(SCCCCCCCC)n1 [S8N16 D1] | 7.1
38 | CCCCCCCCCCCCCCCCNc1nc(NCCN2CCOCC2)nc(SCCCCCCCC)n1 [S8N16 D2] | 2.9
39 | CCCCCCCCCCCCCCCCNc1nc(NCCN2CCCC2)nc(SCCCCCCCC)n1 [S8N16 D3] | 3.3
40 | CCCCCCCCCCCCCCCCNc1nc(NCCN2CCCCC2)nc(SCCCCCCCC)n1 [S8N16 D4] | 1.0
41 | CCCCCCCCCCCCCCCCNc1nc(NCCN2CCN(C)CC2)nc(SCCCCCCCC)n1 [S8N16 D5] | 14.3
42 | CCCCCCCCCCCCCCCCNc1nc(NCCCN(C)C)nc(SCCCCCCCC)n1 [S8N16 D6] | 3.7
43 | CCCCCCCCCCCCCCCCNc1nc(NCCN(CC)CC)nc(SCCCCCCCC)n1 [S8N16 D7] | 5.2
44 | CCCCCCCCCCCCCCCCNc1nc(NCCCN2CCOCC2)nc(SCCCCCCCC)n1 [S8N16 D8] | 8.2
45 | CCCCCCCCCCCCCCCCNc1nc(NCCCN2CCN(C)CC2)nc(SCCCCCCCC)n1 [S8N16 D9] | 9.7
46 | CCCCCCCCCCCCCCCCNc1nc(NCC2CCN(C)CC2)nc(SCCCCCCCC)n1 [S8N16 D10] | 13.4
47 | CCCCCCCCCCCCCCCCCCNc1nc(NCCN(C)C)nc(SCCCCCCCC)n1 [S8N18 D1] | 4.8
48 | CCCCCCCCCCCCCCCCCCNc1nc(NCCN2CCOCC2)nc(SCCCCCCCC)n1 [S8N18 D2] | 2.6
49 | CCCCCCCCCCCCCCCCCCNc1nc(NCCN2CCCC2)nc(SCCCCCCCC)n1 [S8N18 D3] | 6.7
50 | CCCCCCCCCCCCCCCCCCNc1nc(NCCN2CCCCC2)nc(SCCCCCCCC)n1 [S8N18 D4] | 0.9

Row | SMILES | Absolute DNA transfection efficiency in HEK293 cells [%]
51 | CCCCCCCCCCCCCCCCCCNc1nc(NCCN2CCN(C)CC2)nc(SCCCCCCCC)n1 [S8N18 D5] | 8.6
52 | CCCCCCCCCCCCCCCCCCNc1nc(NCCCN(C)C)nc(SCCCCCCCC)n1 [S8N18 D6] | 20.6
53 | CCCCCCCCCCCCCCCCCCNc1nc(NCCN(CC)CC)nc(SCCCCCCCC)n1 [S8N18 D7] | 4.1
54 | CCCCCCCCCCCCCCCCCCNc1nc(NCCCN2CCOCC2)nc(SCCCCCCCC)n1 [S8N18 D8] | 5.1
55 | CCCCCCCCCCCCCCCCCCNc1nc(NCCCN2CCN(C)CC2)nc(SCCCCCCCC)n1 [S8N18 D9] | 5.3
56 | CCCCCCCCCCCCCCCCCCNc1nc(NCC2CCN(C)CC2)nc(SCCCCCCCC)n1 [S8N18 D10] | 9.6
57 | CCCCCCCCSc1nc(NCCN(C)C)nc(SCCCCCCCC)n1 [S8S8 D1] | 17.9
58 | CCCCCCCCSc1nc(NCCN2CCOCC2)nc(SCCCCCCCC)n1 [S8S8 D2] | 17.6
59 | CCCCCCCCSc1nc(NCCN2CCCC2)nc(SCCCCCCCC)n1 [S8S8 D3] | 10.4
60 | CCCCCCCCSc1nc(NCCN2CCCCC2)nc(SCCCCCCCC)n1 [S8S8 D4] | 11.2
61 | CCCCCCCCSc1nc(NCCN2CCN(C)CC2)nc(SCCCCCCCC)n1 [S8S8 D5] | 10.2
62 | CCCCCCCCSc1nc(NCCCN(C)C)nc(SCCCCCCCC)n1 [S8S8 D6] | 5.1
63 | CCCCCCCCSc1nc(NCCN(CC)CC)nc(SCCCCCCCC)n1 [S8S8 D7] | 10.1
64 | CCCCCCCCSc1nc(NCCCN2CCOCC2)nc(SCCCCCCCC)n1 [S8S8 D8] | 13.8
65 | CCCCCCCCSc1nc(NCCCN2CCN(C)CC2)nc(SCCCCCCCC)n1 [S8S8 D9] | 12.1
66 | CCCCCCCCSc1nc(NCC2CCN(C)CC2)nc(SCCCCCCCC)n1 [S8S8 D10] | 27.9
67 | CCCCCCCCCSc1nc(NCCN(C)C)nc(SCCCCCCCC)n1 [S8S9 D1] | 15.6
68 | CCCCCCCCCSc1nc(NCCN2CCOCC2)nc(SCCCCCCCC)n1 [S8S9 D2] | 37.0
69 | CCCCCCCCCSc1nc(NCCN2CCCC2)nc(SCCCCCCCC)n1 [S8S9 D3] | 15.1
70 | CCCCCCCCCSc1nc(NCCN2CCCCC2)nc(SCCCCCCCC)n1 [S8S9 D4] | 13.2
71 | CCCCCCCCCSc1nc(NCCN2CCN(C)CC2)nc(SCCCCCCCC)n1 [S8S9 D5] | 5.8
72 | CCCCCCCCCSc1nc(NCCCN(C)C)nc(SCCCCCCCC)n1 [S8S9 D6] | 6.3
73 | CCCCCCCCCSc1nc(NCCN(CC)CC)nc(SCCCCCCCC)n1 [S8S9 D7] | 29.3
74 | CCCCCCCCCSc1nc(NCCCN2CCOCC2)nc(SCCCCCCCC)n1 [S8S9 D8] | 16.0
